From the supplement of paper PMC10307832

Tests used:
Test in all cases: relative viability (nuclei count vs DMSO), 5 days (fraction); higher = more cells survive
ABC-1 = test system: ABC-1
Procedure, shortened: (§1)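 Lung cancer cell lines, seeded in 1536-well plates, were treated the following day by pin tool with a single drug or with five library-drug doses (not always all listed) in √10 steps on top of a fixed anchor-drug dose. Cells were fixed and nuclei stained in one step after 5 days, and nuclei were counted. Relative viability is the nuclei count for treated wells divided by that for vehicle wells, reported as medians of duplicate plates.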

ChaGo-K-1 = test system: ChaGo-K-1
Procedure, shortened: as §1

HCC-78 = test system: HCC-78
Procedure, shortened: as §1

HOP-62 = test system: HOP-62
Procedure, shortened: as §1

LCLC-97TM1 = test system: LCLC-97TM1
Procedure, shortened: as §1

LOU-NH91 = test system: LOU-NH91
Procedure, shortened: as §1

NCI-H1355 = test system: NCI-H1355
Procedure, shortened: as §1

NCI-H1437 = test system: NCI-H1437
Procedure, shortened: as §1

NCI-H1755 = test system: NCI-H1755
Procedure, shortened: as §1

NCI-H1792 = test system: NCI-H1792
Procedure, shortened: as §1

NCI-H2009 = test system: NCI-H2009
Procedure, shortened: as §1

NCI-H2023 = test system: NCI-H2023
Procedure, shortened: as §1

NCI-H2085 = test system: NCI-H2085
Procedure, shortened: as §1

NCI-H2170 = test system: NCI-H2170
Procedure, shortened: as §1

NCI-H23 = test system: NCI-H23
Procedure, shortened: as §1

NCI-H2405 = test system: NCI-H2405
Procedure, shortened: as §1

NCI-H322M = test system: NCI-H322M
Procedure, shortened: as §1

NCI-H441 = test system: NCI-H441
Procedure, shortened: as §1

NCI-H650 = test system: NCI-H650
Procedure, shortened: as §1

NCI-H727 = test system: NCI-H727
Procedure, shortened: as §1

RERF-LC-KJ = test system: RERF-LC-KJ
Procedure, shortened: as §1

SK-MES-1 = test system: SK-MES-1
Procedure, shortened: as §1

UMC-11 = test system: UMC-11
Procedure, shortened: as §1

O=C(O)CCCCC(CCSCc1ccccc1)SCc1ccccc1 (stereo not given) [CPI-613] + CC(=O)c1c(C)c2cnc(Nc3ccc(N4CCNCC4)cn3)nc2n(C2CCCC2)c1=O [Palbociclib] (partner 0.5 µM) gave a relative viability (ABC-1; first compound 5 µM) of 0.603, a relative viability (ABC-1; first compound 15.81 µM) of 0.669 and a relative viability (ABC-1; first compound 50 µM) of 0.639. It also gave a relative viability (ABC-1; first compound 158.11 µM) of 0.415, a relative viability (ABC-1; first compound 500 µM) of 0.4 and a relative viability (ChaGo-K-1; first compound 5 µM) of 0.868. The relative viability (ChaGo-K-1; first compound 15.81 µM) was 0.902, the relative viability (ChaGo-K-1; first compound 50 µM) was 0.842 and the relative viability (ChaGo-K-1; first compound 158.11 µM) was 0.339. The relative viability (ChaGo-K-1; first compound 500 µM) was 0.419, the relative viability (HCC-78; first compound 5 µM) was 0.462 and the relative viability (HCC-78; first compound 15.81 µM) was 0.527. For the same compound, the relative viability (HCC-78; first compound 50 µM) was 0.473, the relative viability (HCC-78; first compound 158.11 µM) was 0.447 and the relative viability (HCC-78; first compound 500 µM) was 0.427. It also gave a relative viability (HOP-62; first compound 5 µM) of 0.437, a relative viability (HOP-62; first compound 15.81 µM) of 0.45 and a relative viability (HOP-62; first compound 50 µM) of 0.427. It also gave a relative viability (HOP-62; first compound 158.11 µM) of 0.186, a relative viability (HOP-62; first compound 500 µM) of 0.126 and a relative viability (LCLC-97TM1; first compound 5 µM) of 0.232. It also gave a relative viability (LCLC-97TM1; first compound 15.81 µM) of 0.207, a relative viability (LCLC-97TM1; first compound 50 µM) of 0.177 and a relative viability (LCLC-97TM1; first compound 158.11 µM) of 0.124. For the same compound, the relative viability (LCLC-97TM1; first compound 500 µM) was 0.0897, the relative viability (LOU-NH91; first compound 5 µM) was 0.506 and the relative viability (LOU-NH91; first compound 15.81 µM) was 0.548. It also gave a relative viability (LOU-NH91; first compound 50 µM) of 0.522, a relative viability (LOU-NH91; first compound 158.11 µM) of 0.402 and a relative viability (LOU-NH91; first compound 500 µM) of 0.435. For the same compound, the relative viability (NCI-H1355; first compound 5 µM) was 0.429, the relative viability (NCI-H1355; first compound 15.81 µM) was 0.408 and the relative viability (NCI-H1355; first compound 50 µM) was 0.424. It also gave a relative viability (NCI-H1355; first compound 158.11 µM) of 0.407, a relative viability (NCI-H1355; first compound 500 µM) of 0.105 and a relative viability (NCI-H1437; first compound 5 µM) of 0.284. It also gave a relative viability (NCI-H1437; first compound 15.81 µM) of 0.281, a relative viability (NCI-H1437; first compound 50 µM) of 0.292 and a relative viability (NCI-H1437; first compound 158.11 µM) of 0.0875. The relative viability (NCI-H1437; first compound 500 µM) was 0.026, the relative viability (NCI-H1755; first compound 5 µM) was 0.513 and the relative viability (NCI-H1755; first compound 15.81 µM) was 0.432. It also gave a relative viability (NCI-H1755; first compound 50 µM) of 0.454, a relative viability (NCI-H1755; first compound 158.11 µM) of 0.448 and a relative viability (NCI-H1755; first compound 500 µM) of 0.393. For the same compound, the relative viability (NCI-H1792; first compound 5 µM) was 0.627, the relative viability (NCI-H1792; first compound 15.81 µM) was 0.607 and the relative viability (NCI-H1792; first compound 50 µM) was 0.654. The relative viability (NCI-H1792; first compound 158.11 µM) was 0.632, the relative viability (NCI-H1792; first compound 500 µM) was 0.666 and the relative viability (NCI-H2009; first compound 5 µM) was 0.229. For the same compound, the relative viability (NCI-H2009; first compound 15.81 µM) was 0.207, the relative viability (NCI-H2009; first compound 50 µM) was 0.221 and the relative viability (NCI-H2009; first compound 158.11 µM) was 0.0593. It also gave a relative viability (NCI-H2009; first compound 500 µM) of 0.0128, a relative viability (NCI-H2023; first compound 5 µM) of 0.335 and a relative viability (NCI-H2023; first compound 15.81 µM) of 0.323. It also gave a relative viability (NCI-H2023; first compound 50 µM) of 0.35, a relative viability (NCI-H2023; first compound 158.11 µM) of 0.0317 and a relative viability (NCI-H2023; first compound 500 µM) of 0.0063. The relative viability (NCI-H2085; first compound 5 µM) was 0.447, the relative viability (NCI-H2085; first compound 15.81 µM) was 0.47 and the relative viability (NCI-H2085; first compound 50 µM) was 0.456. The relative viability (NCI-H2085; first compound 158.11 µM) was 0.391, the relative viability (NCI-H2085; first compound 500 µM) was 0.191 and the relative viability (NCI-H2170; first compound 5 µM) was 0.379. The relative viability (NCI-H2170; first compound 15.81 µM) was 0.415, the relative viability (NCI-H2170; first compound 50 µM) was 0.382 and the relative viability (NCI-H2170; first compound 158.11 µM) was 0.372. For the same compound, the relative viability (NCI-H2170; first compound 500 µM) was 0.219, the relative viability (NCI-H23; first compound 5 µM) was 0.465 and the relative viability (NCI-H23; first compound 15.81 µM) was 0.465. The relative viability (NCI-H23; first compound 50 µM) was 0.519, the relative viability (NCI-H23; first compound 158.11 µM) was 0.104 and the relative viability (NCI-H23; first compound 500 µM) was 0.0119. It also gave a relative viability (NCI-H2405; first compound 5 µM) of 0.558, a relative viability (NCI-H2405; first compound 15.81 µM) of 0.499 and a relative viability (NCI-H2405; first compound 50 µM) of 0.453. It also gave a relative viability (NCI-H2405; first compound 158.11 µM) of 0.167, a relative viability (NCI-H2405; first compound 500 µM) of 0.316 and a relative viability (NCI-H322M; first compound 5 µM) of 0.466. For the same compound, the relative viability (NCI-H322M; first compound 15.81 µM) was 0.47, the relative viability (NCI-H322M; first compound 50 µM) was 0.494 and the relative viability (NCI-H322M; first compound 158.11 µM) was 0.513. For the same compound, the relative viability (NCI-H322M; first compound 500 µM) was 0.288, the relative viability (NCI-H441; first compound 5 µM) was 0.222 and the relative viability (NCI-H441; first compound 15.81 µM) was 0.197. The relative viability (NCI-H441; first compound 50 µM) was 0.18, the relative viability (NCI-H441; first compound 158.11 µM) was 0.136 and the relative viability (NCI-H441; first compound 500 µM) was 0.0142. It also gave a relative viability (NCI-H650; first compound 5 µM) of 0.337, a relative viability (NCI-H650; first compound 15.81 µM) of 0.312 and a relative viability (NCI-H650; first compound 50 µM) of 0.306. For the same compound, the relative viability (NCI-H650; first compound 158.11 µM) was 0.269, the relative viability (NCI-H650; first compound 500 µM) was 0.262 and the relative viability (NCI-H727; first compound 5 µM) was 0.673. For the same compound, the relative viability (NCI-H727; first compound 15.81 µM) was 0.614, the relative viability (NCI-H727; first compound 50 µM) was 0.566 and the relative viability (NCI-H727; first compound 158.11 µM) was 0.655. It also gave a relative viability (NCI-H727; first compound 500 µM) of 0.634, a relative viability (RERF-LC-KJ; first compound 5 µM) of 1.07 and a relative viability (RERF-LC-KJ; first compound 15.81 µM) of 0.952. For the same compound, the relative viability (RERF-LC-KJ; first compound 50 µM) was 1.09, the relative viability (RERF-LC-KJ; first compound 158.11 µM) was 0.615 and the relative viability (RERF-LC-KJ; first compound 500 µM) was 0.571. For the same compound, the relative viability (SK-MES-1; first compound 5 µM) was 0.305, the relative viability (SK-MES-1; first compound 15.81 µM) was 0.279 and the relative viability (SK-MES-1; first compound 50 µM) was 0.277. It also gave a relative viability (SK-MES-1; first compound 158.11 µM) of 0.14, a relative viability (SK-MES-1; first compound 500 µM) of 0.145 and a relative viability (UMC-11; first compound 5 µM) of 0.346. It also gave a relative viability (UMC-11; first compound 15.81 µM) of 0.354, a relative viability (UMC-11; first compound 50 µM) of 0.323 and a relative viability (UMC-11; first compound 158.11 µM) of 0.23. It also gave a relative viability (UMC-11; first compound 500 µM) of 0.216.
